The subject of series [1] is PAO1 biofilm (72 h, transferred). Put plainly: Transferred biofilm model. The class given is cell-based, P. aeruginosa. Particulars: 15 μg/mL TOB; 0.05 mg/mL MO-LCNPs; 24 h. On the procedure:
Taking into account the toxicity data of the MO-LCNPs, additional biofilm activity studies were conducted to ensure a non-toxic concentration of MO-LCNPs maintained the activity of TOB in the MBEC Assay® PAO1 biofilm model. A variation in this biofilm model was employed to contrast the effect of the MO-LCNPs compared to the standard, MBEC® model. Briefly, from an overnight culture, PAO1 was diluted in M63 media to an OD of 0.01 in 500 μL in 24 well plates and incubated for 72 h at 37° C. to form biofilms. Breath seals were used to permit gas exchange during the 72 h incubation period. The 72 h biofilms were then washed with 200 μL PBS to remove planktonic bacteria. Then, using 500 μL of M63 buffer, the biofilms was scraped off from the bottom of the 24-well plate using a 1 mL pipette tip and transferred into a fresh plate. This formed microcolonies of biofilm that closely resembles the clinical environment. The treatments were then added on top of the biofilms and incubated for a further 24 h at 37° C. The treatments included 15 μg/mL of an unformulated TOB solution and TOB loaded in the MO-LCNPs
The amount of Pluronic F-127 in the MO-LCNPs TOB formulation was also varied to determine the effect the surface stabiliser had on the antimicrobial effect. […]

A further series has as its system P. aeruginosa Xen41. Put plainly: Chronic full-thickness wound infection model: bacterial load. It counts as in vivo, Balb/c mice. On the procedure:
Immediately after wounding, group 1 was inoculated with 10^7 CFU of bioluminescent P. aeruginosa strain (Xen41, PerkinElmer, Waltham, MA, USA) in 10 μL of 0.9% saline. All other mice were covered with an adhesive dressing (Opsite Flexigrid, Smith & Nephew, London, UK). All mice were given soaked food and free access to water for the study. Postoperative analgesia (0.05 mg/kg buprenorphine) was provided 10 h and 24 h post-surgery via subcutaneous administration. After inoculation, mice were imaged using IVIS Spectrum Live Animal Imaging System (PerkinElmer, Waltham, MA, USA) and then daily until sacrifice to quantity radiance (photons/s) of the bioluminescent bacteria in the wound and correlate to the infection load, as previously described (Abbott C A et al., 2013, Contributors, in Handbook of Proteolytic Enzymes, N. D. Rawlings and G. Salvesen, Editors. 2013, Academic Press. p. xxxv-xlviii). Using built-in Living Image R software, regions of interest (ROI) were selected surrounding the wound to quantify the total photon emission following established protocols (Haidari, H., et al., 2021, Acta Biomaterialia, 128: 420-434; Kopecki, Z., et al., 2009, Journal of Investigative Dermatology, 129(8): 2031-2045).
After the pilot, it was determined that a 6 mm wound+10^6 CFU P. aeruginosa infection was the appropriate model to proceed with. […]

Series [2] can be described thus: Tobramycin transport across CFBE41o− infected with PAO1 biofilm. Particulars: human; nebulised; biofilm and epithelium monolayer; read-out: Papp of TOB. The class given is in vitro ADME, human. The method, then: (§1) To assess the activity and toxicity or formulations, the CFBE41o− cell line was seeded on Transwell® inserts (0.05×10^6) at the liquid-liquid interface (500 μL apical and 1500 μL basolateral) on day 0. On day 3, the apical side media was removed, and the basolateral side was replaced with 500 μL of media. On day 7, the transepithelial electrical resistance (TEER) was measured through adding 500 μL to the apical chamber of one well and replacing the basolateral side with 1500 μL. The transferred biofilm model, described above, was employed to transfer the PAO1 biofilm on top of the CFBE41o− cell line in the apical compartment of the Transwells® on day 7. After 1 h incubation, the supernatant was removed as the biofilm has settled onto the cells.
(§2) Using the Aerogen® Pro (vibrating mesh nebuliser) and nebulisation chamber, the treatments were then nebulised on top of the biofilm and CFBE41o− cell layer. […]
(§3) After TOB treatments were nebulised, at 5, 15, 30, 60, 120, 240 and 1440 minutes, 100 μL sample was taken from the basolateral compartment and replaced with fresh MEM media. The sample was then filtered through 4 mm Millex® syringe filters before LC-MS/MS analysis, as described above, to quantify the transport of TOB.

In series [3] the test system is CFBE41o− infected with PAO1 biofilm. Described as above. The class given is in vitro ADME, human. Particulars: peak at 2.5 h after nebulisation. The method, then:
as §1, §2, §3

Each structure is given as a SMILES string.

For `NC[C@H]1O[C@H](O[C@H]2[C@H](O)[C@@H](O[C@H]3O[C@H](CO)[C@@H](O)[C@H](N)[C@H]3O)[C@H](N)C[C@@H]2N)[C@H](N)C[C@@H]1O` [unformulated TOB, tobramycin], the “reduction in PAO1 load” value in series [1] is reported as “two”. Moreover, the “change in infection level compared to saline” value in the series with P. aeruginosa Xen41 (after each once-daily dose) was “no statistical change in the infection level”. In the series on P. aeruginosa Xen41 (day six, after three doses of 15 μg topical), the “P. aeruginosa remaining in excised wounds” value is on record as 5×10^6 CFU. In series [2], the Papp (in general, a coefficient for how fast a substance crosses the barrier) at 1440 min, 3.32 mg/mL came out at 1.91 ×10⁻⁶ cm/s. The “TOB reaching the basolateral compartment” value in series [3] turned out to be 15.8%.

Values taken from patent US12569508B2, “Antimicrobial compositions and methods of use” (priority 2020, dated 2026).
